Columns and labels:
fusarium graminearium = assay: Test I: wheat head scab, preventive spray on wheat seedlings; settings: for pest or weed control at 200 ppm: Fusarium, in Triticum aestivum, topical, 192 h, read-out: Test I disease control rating, 200 ppm; for Test I disease control rating: 200 ppm
Description: (the causal agent of wheat head scab) and incubated in a saturated atmosphere at 20° C. for 72 h, and then moved to a growth chamber at 22° C. for 5 days, after which disease ratings were made.

Septoria nodorum = assay: Test H: wheat glum blotch, preventive spray on wheat seedlings; settings: for pest or weed control at 200 ppm: Parastagonospora nodorum, in Triticum aestivum, topical, 168 h, read-out: Test H disease control rating, 200 ppm; for Test H disease control rating: 200 ppm
Description: (the causal agent of wheat glum blotch) and incubated in a saturated atmosphere at 20° C. for 48 h, and then moved to a growth chamber at 22° C. for 5 days, after which disease ratings were made.

Plasmopara viticola = assay: Test D: grape downy mildew, spray after inoculation of grape seedlings; format: in vivo; settings: 200 ppm; for pest or weed control at 200 ppm: Plasmopara viticola, 168 h, read-out: Test D disease control rating
Description: Upon removal, disease ratings were made. […] A dash (-) indicates no test results.

Sclerotinia sclerotiorum = assay: Test C: cucumber white mold, preventive spray on cucumber seedlings; settings: for pest or weed control at 200 ppm: Sclerotinia sclerotiorum, in Cucumis sativus, 168 h, read-out: Test C disease control rating, 200 ppm; for Test C disease control rating: 200 ppm
Pythium aphanidermatum = assay: Test A: bluegrass pythium blight, preventive spray on bluegrass seedlings; settings: for pest or weed control at 200 ppm: Pythium aphanidermatum, 120 h, read-out: Test A disease control rating; for Test A disease control rating: 200 ppm
Botrytis cinerea = assay: Test E: tomato botrytis, preventive spray on tomato seedlings; settings: for pest or weed control at 200 ppm: Botrytis cinerea, in Solanum lycopersicum, topical, 72 h, read-out: Test E disease control rating; for Test E disease control rating: 200 ppm
[1] = test system: Puccinia recondita f. sp. tritici; assay: Test K: wheat leaf rust, preventive spray on wheat seedlings; settings: for pest or weed control at 200 ppm: Puccinia recondita, in Triticum aestivum, 192 h, read-out: Test K disease control rating; for Test K disease control rating: 200 ppm
Phytophthora infestans = assay: whole plant or invertebrate; format: in vivo; settings: for Test F disease control rating: 200 ppm
[2] = test system: Colletotrichum orbiculare; assay: Test B: cucumber Colletotrichum anthracnose, preventive spray on cucumber seedlings; settings: for pest or weed control at 200 ppm: Colletotrichum orbiculare, in Cucumis sativus, 144 h, read-out: Test B disease control rating, 200 ppm; for Test B disease control rating: 200 ppm
[3] = test system: Erysiphe graminis f. sp. tritici; assay: Test L: wheat powdery mildew, preventive spray on wheat seedlings; settings: for pest or weed control at 200 ppm: Blumeria graminis, in Triticum aestivum, 168 h, read-out: Test L disease control rating, 200 ppm; for Test L disease control rating: 200 ppm
Rhizoctonia oryzae = assay: Test G: turf brown patch, preventive spray on creeping bent grass seedlings; settings: for pest or weed control at 200 ppm: Waitea circinata, in Agrostis stolonifera, topical, 144 h, read-out: Test G disease control rating, 200 ppm; for Test G disease control rating: 200 ppm
Description: (the causal agent of turf brown patch) and incubated in a saturated atmosphere at 27° C. for 24 h, and then moved to a growth chamber at 27° C. for 5 days, after which disease ratings were made.

Compound: CC(C)Cn1c(-c2c(F)cccc2F)c(Cl)nc(-n2cccn2)c1=O [Compound 1, 5-Chloro-6-(2,6-difluorophenyl)-1-(2-methylpropyl)-3-(1H-pyrazol-1-yl)-2(1H)-pyrazinone]
- pest or weed control at 200 ppm (fusarium graminearium): 0%
- pest or weed control at 200 ppm (Septoria nodorum): 99%
- pest or weed control at 200 ppm (Plasmopara viticola): 0%
- pest or weed control at 200 ppm (Sclerotinia sclerotiorum): 0%
- pest or weed control at 200 ppm (Pythium aphanidermatum): 0%
- pest or weed control at 200 ppm (Botrytis cinerea): 100%
- pest or weed control at 200 ppm [1]: 99%
- pest or weed control at 200 ppm (Phytophthora infestans; Phytophthora infestans, in Solanum lycopersicum, topical, 144 h, read-out: Test F disease control rating): 0%
- pest or weed control at 200 ppm [2]: 0%
- pest or weed control at 200 ppm [3]: 93%
- pest or weed control at 200 ppm (Rhizoctonia oryzae): 78%

Compound: CC(C)Cn1c(-c2c(F)cccc2F)c(Cl)nc(C#N)c1=O [Compound 5, 6-Chloro-5-(2,6-difluorophenyl)-3,4-dihydro-4-(2-methylpropyl)-3-oxopyrazinecarbonitrile]
- pest or weed control at 200 ppm (fusarium graminearium): 20%
- pest or weed control at 200 ppm (Septoria nodorum): 0%
- pest or weed control at 200 ppm (Plasmopara viticola): 24%
- pest or weed control at 200 ppm (Sclerotinia sclerotiorum): 0%
- pest or weed control at 200 ppm (Pythium aphanidermatum): 71%
- pest or weed control at 200 ppm (Botrytis cinerea): 71%
- pest or weed control at 200 ppm [1]: 99%
- pest or weed control at 200 ppm [2]: 33%
- pest or weed control at 200 ppm [3]: 97%
- pest or weed control at 200 ppm (Rhizoctonia oryzae): 26%

Compound: Cn1c(-c2ccccc2F)c(Cl)nc(-n2cncn2)c1=O [Compound 15]
- Test I disease control rating (fusarium graminearium): 0%
- Test H disease control rating (Septoria nodorum): 0%
- Test D disease control rating (Plasmopara viticola): 0%
- Test C disease control rating (Sclerotinia sclerotiorum): 0%
- Test A disease control rating (Pythium aphanidermatum): 0%
- Test E disease control rating (Botrytis cinerea): 0%
- Test K disease control rating [1]: 0%
- Test F disease control rating (Phytophthora infestans): 0%
- Test B disease control rating [2]: 0%
- Test L disease control rating [3]: 0%
- Test G disease control rating (Rhizoctonia oryzae): 0%

Compound: CC(C)Cn1c(-c2c(F)cccc2Cl)c(Cl)nc(-n2cccn2)c1=O [compound 9]
- Test I disease control rating (fusarium graminearium): 80%
- Test H disease control rating (Septoria nodorum): 100%
- Test D disease control rating (Plasmopara viticola): 49%
- Test C disease control rating (Sclerotinia sclerotiorum): 98%
- Test A disease control rating (Pythium aphanidermatum): 62%
- Test E disease control rating (Botrytis cinerea): 100%
- Test K disease control rating [1]: 100%
- Test F disease control rating (Phytophthora infestans): 88%
- Test B disease control rating [2]: 100%
- Test L disease control rating [3]: 99%
- Test G disease control rating (Rhizoctonia oryzae): 82%

Compound: Cn1c(-c2ccccc2F)c(Cl)nc(-n2cccn2)c1=O [compound 14]
- Test I disease control rating (fusarium graminearium): 0%
- Test H disease control rating (Septoria nodorum): 0%
- Test D disease control rating (Plasmopara viticola): 0%
- Test C disease control rating (Sclerotinia sclerotiorum): 0%
- Test A disease control rating (Pythium aphanidermatum): 0%
- Test E disease control rating (Botrytis cinerea): 79%
- Test K disease control rating [1]: 0%
- Test F disease control rating (Phytophthora infestans): 27%
- Test B disease control rating [2]: 0%
- Test L disease control rating [3]: 21%
- Test G disease control rating (Rhizoctonia oryzae): 0%

Compound: O=c1c(N2CCC=N2)nc(Cl)c(-c2c(F)cccc2F)n1CC1CC1 [compound 16]
- Test I disease control rating (fusarium graminearium): 0%
- Test H disease control rating (Septoria nodorum): 0%
- Test D disease control rating (Plasmopara viticola): 8%
- Test C disease control rating (Sclerotinia sclerotiorum): 0%
- Test A disease control rating (Pythium aphanidermatum): 0%
- Test E disease control rating (Botrytis cinerea): 99%
- Test K disease control rating [1]: 68%
- Test F disease control rating (Phytophthora infestans): 84%
- Test B disease control rating [2]: 0%
- Test L disease control rating [3]: 26%
- Test G disease control rating (Rhizoctonia oryzae): 0%

Compound: CCC(C)Cn1c(-c2c(F)cc(F)cc2F)c(Cl)nc(-n2cncn2)c1=O (stereo not drawn) [compound 20]
- Test I disease control rating (fusarium graminearium): 0%
- Test H disease control rating (Septoria nodorum): 98%
- Test D disease control rating (Plasmopara viticola): 0%
- Test C disease control rating (Sclerotinia sclerotiorum): 0%
- Test A disease control rating (Pythium aphanidermatum): 0%
- Test E disease control rating (Botrytis cinerea): 100%
- Test K disease control rating [1]: 100%
- Test F disease control rating (Phytophthora infestans): 30%
- Test B disease control rating [2]: 0%
- Test L disease control rating [3]: 98%
- Test G disease control rating (Rhizoctonia oryzae): 26%

Compound: CCC(C)Cn1c(-c2c(F)cccc2F)c(Cl)nc(C#N)c1=O (stereo not drawn) [compound 21]
- Test I disease control rating (fusarium graminearium): 0%
- Test H disease control rating (Septoria nodorum): 0%
- Test D disease control rating (Plasmopara viticola): 15%
- Test C disease control rating (Sclerotinia sclerotiorum): 0%
- Test A disease control rating (Pythium aphanidermatum): 0%
- Test E disease control rating (Botrytis cinerea): 99%
- Test K disease control rating [1]: 96%
- Test F disease control rating (Phytophthora infestans): 0%
- Test B disease control rating [2]: 0%
- Test L disease control rating [3]: 96%
- Test G disease control rating (Rhizoctonia oryzae): 31%
